Reference: ChEMBL document CHEMBL1201862, “PubChem BioAssay data set” (2004)
The source made the active and inactive calls.

Assays:
[1] = biological target: Sphingosine 1-phosphate receptor 2 (Homo sapiens, UniProt O95136); test: Dose Response Cell Based Assay for Agonists of the S1P2 Receptor of Purchased Analogues. [Related pubchem assays: 729, 843, 854, 736 ]; assay type: functional
[2] = inhibitors of Bluetongue virus cytopathic effect, confirmation, arbovirus, BSR cells (AID 1250); assay type: functional;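 note: protection from viral cytopathic effect measured as cell viability by ATP luminescence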
INS1 = test: beta cell apoptosis inhibitors, cytokine rescue, dose response, luminescence, retest (AID 449756); assay type: functional, cell-based; settings: Rattus norvegicus;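 note: cell death triggered by IL-1 beta plus TNF-alpha plus IFN-gamma mixture; protective hits raise ATP signal compared with cytokine alone wells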
[3] = microbe, parasite or virus in culture; assay type: functional; settings: Mycobacterium tuberculosis
[4] = A High Throughput Confirmatory Assay used to Identify Novel Compounds that Inhibit Mycobacterium Tuberculosis in the absence of Glycerol.; assay type: functional
Bcl-2-like protein 10 = biological target: T1, Bcl-2-like protein 10 (Homo sapiens, UniProt Q9HD36); test: displacers of TR3 peptide from Bcl-B, primary screen, selectivity assay for Bfl-1 inhibitor project, biochemical, fluorescence polarization, FITC-TR3 peptide (AID 748);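 note: fluorescence polarization from a fluorescein-labelled TR3 peptide binding purified Bcl-B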
T1 sequence (Q9HD36 whole entry): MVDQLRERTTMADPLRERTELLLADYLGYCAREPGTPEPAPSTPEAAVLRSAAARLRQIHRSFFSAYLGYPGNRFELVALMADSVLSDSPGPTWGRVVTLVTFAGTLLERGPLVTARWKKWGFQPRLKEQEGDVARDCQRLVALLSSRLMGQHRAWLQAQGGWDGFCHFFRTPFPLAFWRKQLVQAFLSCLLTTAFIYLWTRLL

[5] = biological target: T2, Voltage-gated N-type calcium channel alpha-1B subunit/Amyloid beta A4 precursor protein-binding family A member 1 (Homo sapiens, UniProt Q00975+Q02410); test: disruptors of Mint-PDZ/N-type channel peptide interaction – biochemical, HTRF, SAR follow-up (AID 2489); assay type: functional
SUMO E1/E2 = SUMO E1/E2 (Homo sapiens, UniProt P63279+Q9UBE0+Q9UBT2); test: SAR analysis of SUMOylation using HTRF in an in-Vitro dose response assay. [Related pubchem assays (depositor defined):AID2006, AID2011, AID2018, AID2069, AID2658]; assay type: functional
[6] = biological target: T2, Voltage-gated N-type calcium channel alpha-1B subunit/Amyloid beta A4 precursor protein-binding family A member 1; test: disruptors of Mint-PDZ/N-type channel peptide interaction – biochemical, HTRF, set 2, SAR follow-up (AID 434980); assay type: functional
Estrogen receptor beta [7] = biological target: T3, Estrogen receptor beta (Homo sapiens, UniProt Q92731); test: ERβ–SRC-3 coactivator interaction inhibitors, confirmation, orthogonal assay, biochemical, ELISA, streptavidin-HRP readout (AID 1060)
Estrogen receptor beta [8] = biological target: T3, Estrogen receptor beta
[9] = A549 cell cytotoxicity, dose response, cytotoxicity control, plate reader, cherry-pick, antagonist series (AID 743412); assay type: functional, cell-based
[10] = LGR2 antagonists, dose response, cell-based, HEK293, CRE-luciferase reporter, cherry pick, set 2 (AID 743343); assay type: functional;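 note: transfected cells were stimulated with diluted bursicon conditioned medium after compound addition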
[11] = biological target: T4, Heat shock factor protein 1 (Mus musculus, UniProt P38532); test: inhibition of MG132-induced HSE-luciferase signal, confirmation, cell-based, NIH3T3, luminescence, dose retest (AID 2382); assay type: functional;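 note: NIH3T3 fibroblasts with HSF1-driven luciferase reporter stressed by proteasome inhibitor MG132; luminescence from HSF1-driven luciferase expression after 8 hours of MG132 stress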
T4 sequence (P38532 whole entry): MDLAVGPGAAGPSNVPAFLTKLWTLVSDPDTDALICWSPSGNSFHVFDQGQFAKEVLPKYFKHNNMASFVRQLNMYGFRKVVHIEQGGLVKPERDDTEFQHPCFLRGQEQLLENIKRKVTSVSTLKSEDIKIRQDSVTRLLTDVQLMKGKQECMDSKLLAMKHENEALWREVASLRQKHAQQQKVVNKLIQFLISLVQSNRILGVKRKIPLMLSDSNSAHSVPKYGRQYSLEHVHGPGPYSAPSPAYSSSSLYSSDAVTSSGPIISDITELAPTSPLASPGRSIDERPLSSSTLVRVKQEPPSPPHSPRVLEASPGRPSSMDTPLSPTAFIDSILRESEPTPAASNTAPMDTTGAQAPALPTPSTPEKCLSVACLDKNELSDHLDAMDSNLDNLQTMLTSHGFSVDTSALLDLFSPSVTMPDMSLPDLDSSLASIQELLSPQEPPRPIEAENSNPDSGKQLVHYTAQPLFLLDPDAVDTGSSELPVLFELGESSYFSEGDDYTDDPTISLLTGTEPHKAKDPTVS

[12] = HEK293 cell cytotoxicity, dose response, cytotoxicity control, plate reader, cherry-picked samples (AID 743446); assay type: functional, cell-based
[13] = inhibitors of firefly luciferase expression or activity, dose response, H4 neuroglioma cells, luminescence (AID 1990); assay type: functional, cell-based
[14] = MC4R antagonists, dose response, counter-screen for LGR2 antagonist project, cell-based, plate reader, cherry pick (AID 743444); assay type: functional;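 note: transfected HEK 293 cells stimulated with alpha-MSH peptide; potency of inhibitors of the alpha-MSH evoked signal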
[15] = Luminescence Cell-Based Dose Response HTS to Identify Inhibitors of 5'UTR Stem-Loop Driven Prion Protein mRNA Translation in H4 Neuroglioblastoma Cells. [Related pubchem assays: 1827 (Project Summary), 1813 (Primary HTS)]; assay type: functional
[16] = Luminescence-based counterscreen assay for KLF5 inhibitors: dose response cell-based high throughput screening assay to identify cytotoxic compounds using the IEC-6 intestinal epithelial cell line. [Related pubchem assays: 1700 (Primary screen.), 1834 (Confirmation screen.), 1858 (Summary AID.), 1905 (Counterscreen.)]; assay type: functional
[17] = biological target: Peroxisome proliferator-activated receptor gamma/Nuclear receptor coactivator 3 (Homo sapiens, UniProt P37231); assay type: functional;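 note: agonist potency for raising coactivator recruitment to the receptor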
[18] = biological target: Peroxisome proliferator-activated receptor gamma/Nuclear receptor coactivator 2 (Homo sapiens, UniProt P37231); assay type: functional;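 note: agonist potency for raising coactivator recruitment to the receptor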
[19] = biological target: Peroxisome proliferator-activated receptor gamma/Nuclear receptor coactivator 1 (Homo sapiens, UniProt P37231); assay type: functional;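 note: agonist potency as compounds enhance coactivator SRC-1 recruitment to PPARgamma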
Ion channel NompC = Ion channel NompC (Danio rerio, UniProt Q7T1G6); test: Fluorescence counterscreen assay for TRPML3 agonists: dose response cell-based high-throughput screening assay to identify agonists of the transient receptor potential channel N1 (TRPN1). [Related pubchem assays: 1526, 1424, 1448 ]; assay type: functional
Mucolipin-3 = Mucolipin-3 (Homo sapiens, UniProt Q8TDD5); test: Dose response cell-based high-throughput screening assay for agonists of the transient receptor potential channel ML3 (TRPML3). [Related pubchem assays: 1526, 1424, 1448 ]; assay type: functional
[20] = C. albicans growth with fluconazole, confirmation, fluorescence, retest (AID 2467); assay type: functional, cell-based
HEK293 = test: inhibitors of LMP1-driven NF-kB reporter, dose response, cell-based, HEK293, luciferase, cherry-pick (AID 588343); assay type: functional; settings: Homo sapiens
[21] = NIH-3T3 fibroblast cytotoxicity, dose response, cytotoxicity control, cell-based, fluorescence, Alamar Blue, secondary assay (AID 2327); assay type: functional;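 note: NIH-3T3 mouse fibroblasts cultured with fluconazole at 8 µg/mL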
Nonstructural protein 1 = Nonstructural protein 1 (Influenza A virus, UniProt Q194T2); assay type: functional, Influenza A virus (A/California/07/2009(H1N1))
[22] = HepG2 cell cytotoxicity, dose response, cytotoxicity control, plate reader, cherry-pick, antagonist series (AID 743416); assay type: functional, cell-based
[23] = cytotoxicity in MIN6 insulinoma cells, dose response, cytotoxicity control, cell-based, mouse insulinoma (AID 2122); assay type: functional;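 note: confirmatory high-throughput counterscreen run to flag cytotoxic compounds; mouse MIN-6 beta cells carrying an insulin promoter eGFP reporter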
cells [24] = assay type: functional, cell-based
cells [25] = assay type: functional, cell-based; remark: listed apart in the source
[26] = insulin promoter down-regulators in MIN6 cells, imaging, high-content screening, mouse beta cells (AID 1628); assay type: functional

T2 sequence (Q00975 whole entry): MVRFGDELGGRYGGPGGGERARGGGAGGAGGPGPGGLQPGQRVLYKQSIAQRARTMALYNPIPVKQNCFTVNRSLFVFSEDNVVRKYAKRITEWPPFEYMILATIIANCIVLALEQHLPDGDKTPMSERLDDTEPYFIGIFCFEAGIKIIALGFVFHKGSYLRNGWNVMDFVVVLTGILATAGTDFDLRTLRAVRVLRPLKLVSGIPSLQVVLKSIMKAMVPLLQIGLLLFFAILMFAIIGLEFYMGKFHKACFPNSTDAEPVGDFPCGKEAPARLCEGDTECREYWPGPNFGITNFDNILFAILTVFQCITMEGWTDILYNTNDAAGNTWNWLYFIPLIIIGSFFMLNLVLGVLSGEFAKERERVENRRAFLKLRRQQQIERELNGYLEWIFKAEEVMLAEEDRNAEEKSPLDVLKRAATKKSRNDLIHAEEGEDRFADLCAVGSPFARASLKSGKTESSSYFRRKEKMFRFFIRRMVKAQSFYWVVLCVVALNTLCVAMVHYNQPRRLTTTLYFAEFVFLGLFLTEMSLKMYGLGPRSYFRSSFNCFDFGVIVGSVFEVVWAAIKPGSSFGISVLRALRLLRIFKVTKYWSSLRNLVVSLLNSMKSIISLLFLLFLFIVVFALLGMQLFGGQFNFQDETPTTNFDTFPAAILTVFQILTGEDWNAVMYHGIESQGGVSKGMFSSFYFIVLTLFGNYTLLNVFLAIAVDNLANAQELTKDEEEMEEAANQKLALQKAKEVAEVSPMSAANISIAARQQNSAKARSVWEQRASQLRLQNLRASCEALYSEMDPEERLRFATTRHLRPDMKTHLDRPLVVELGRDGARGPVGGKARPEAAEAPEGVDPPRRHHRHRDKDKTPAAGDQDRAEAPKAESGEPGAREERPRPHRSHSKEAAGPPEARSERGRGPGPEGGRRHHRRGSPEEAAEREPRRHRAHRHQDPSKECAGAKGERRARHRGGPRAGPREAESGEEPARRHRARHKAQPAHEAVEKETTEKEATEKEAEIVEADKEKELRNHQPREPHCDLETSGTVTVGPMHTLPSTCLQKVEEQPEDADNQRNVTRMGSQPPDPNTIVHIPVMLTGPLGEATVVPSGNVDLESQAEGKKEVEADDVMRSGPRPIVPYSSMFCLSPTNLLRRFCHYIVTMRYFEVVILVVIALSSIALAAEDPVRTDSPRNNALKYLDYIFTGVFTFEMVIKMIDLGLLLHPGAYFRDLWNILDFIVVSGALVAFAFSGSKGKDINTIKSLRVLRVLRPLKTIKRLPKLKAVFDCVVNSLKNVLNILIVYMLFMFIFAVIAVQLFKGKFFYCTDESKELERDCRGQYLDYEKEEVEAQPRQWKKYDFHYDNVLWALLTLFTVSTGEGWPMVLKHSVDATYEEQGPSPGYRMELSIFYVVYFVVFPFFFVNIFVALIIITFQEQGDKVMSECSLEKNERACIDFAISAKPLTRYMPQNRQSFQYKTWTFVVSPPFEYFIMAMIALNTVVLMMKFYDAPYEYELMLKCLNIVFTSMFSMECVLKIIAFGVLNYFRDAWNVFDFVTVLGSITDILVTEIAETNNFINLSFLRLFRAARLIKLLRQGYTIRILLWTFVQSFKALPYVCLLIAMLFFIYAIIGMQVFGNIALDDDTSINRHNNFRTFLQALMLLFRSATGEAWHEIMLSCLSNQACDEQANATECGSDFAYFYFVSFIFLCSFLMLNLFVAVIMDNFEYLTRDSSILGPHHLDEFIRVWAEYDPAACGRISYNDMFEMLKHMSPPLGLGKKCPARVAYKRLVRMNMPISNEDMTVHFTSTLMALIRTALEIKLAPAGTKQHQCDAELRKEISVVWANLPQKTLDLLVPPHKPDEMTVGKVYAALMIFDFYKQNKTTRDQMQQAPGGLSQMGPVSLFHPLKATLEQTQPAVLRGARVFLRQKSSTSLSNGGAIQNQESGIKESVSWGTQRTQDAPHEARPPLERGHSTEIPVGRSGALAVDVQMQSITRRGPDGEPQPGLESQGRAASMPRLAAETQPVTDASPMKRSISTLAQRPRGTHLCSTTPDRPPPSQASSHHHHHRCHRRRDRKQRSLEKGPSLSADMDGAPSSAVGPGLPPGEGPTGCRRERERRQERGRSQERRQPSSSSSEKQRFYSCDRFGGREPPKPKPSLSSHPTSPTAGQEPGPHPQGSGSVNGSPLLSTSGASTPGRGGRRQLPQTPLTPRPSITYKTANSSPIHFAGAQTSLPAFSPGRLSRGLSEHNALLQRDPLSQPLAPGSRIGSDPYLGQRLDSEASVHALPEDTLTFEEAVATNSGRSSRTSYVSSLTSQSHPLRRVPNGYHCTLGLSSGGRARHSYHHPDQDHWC
T2 sequence (Q02410 whole entry): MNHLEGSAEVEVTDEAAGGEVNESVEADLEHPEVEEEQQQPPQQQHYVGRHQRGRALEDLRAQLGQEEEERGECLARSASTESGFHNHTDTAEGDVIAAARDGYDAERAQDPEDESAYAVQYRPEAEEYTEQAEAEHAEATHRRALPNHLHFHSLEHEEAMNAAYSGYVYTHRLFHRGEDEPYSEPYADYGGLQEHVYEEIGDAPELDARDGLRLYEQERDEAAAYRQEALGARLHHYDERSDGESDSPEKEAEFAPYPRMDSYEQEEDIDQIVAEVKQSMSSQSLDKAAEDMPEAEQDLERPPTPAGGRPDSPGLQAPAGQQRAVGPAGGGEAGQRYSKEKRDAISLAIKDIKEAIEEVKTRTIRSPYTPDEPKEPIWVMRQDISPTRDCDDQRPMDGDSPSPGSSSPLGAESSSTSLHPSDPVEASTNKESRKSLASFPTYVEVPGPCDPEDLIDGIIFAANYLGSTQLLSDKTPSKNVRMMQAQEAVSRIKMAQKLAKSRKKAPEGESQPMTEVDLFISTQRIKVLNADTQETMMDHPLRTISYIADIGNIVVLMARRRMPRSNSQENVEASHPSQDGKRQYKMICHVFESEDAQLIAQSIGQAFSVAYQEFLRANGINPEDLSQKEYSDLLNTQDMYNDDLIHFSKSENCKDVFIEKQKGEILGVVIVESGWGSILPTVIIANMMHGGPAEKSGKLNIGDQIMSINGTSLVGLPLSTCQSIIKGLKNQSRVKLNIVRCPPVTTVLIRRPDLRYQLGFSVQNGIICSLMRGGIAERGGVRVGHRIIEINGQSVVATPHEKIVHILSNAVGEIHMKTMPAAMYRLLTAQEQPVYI
Ion channel NompC, sequence (Q7T1G6 whole entry): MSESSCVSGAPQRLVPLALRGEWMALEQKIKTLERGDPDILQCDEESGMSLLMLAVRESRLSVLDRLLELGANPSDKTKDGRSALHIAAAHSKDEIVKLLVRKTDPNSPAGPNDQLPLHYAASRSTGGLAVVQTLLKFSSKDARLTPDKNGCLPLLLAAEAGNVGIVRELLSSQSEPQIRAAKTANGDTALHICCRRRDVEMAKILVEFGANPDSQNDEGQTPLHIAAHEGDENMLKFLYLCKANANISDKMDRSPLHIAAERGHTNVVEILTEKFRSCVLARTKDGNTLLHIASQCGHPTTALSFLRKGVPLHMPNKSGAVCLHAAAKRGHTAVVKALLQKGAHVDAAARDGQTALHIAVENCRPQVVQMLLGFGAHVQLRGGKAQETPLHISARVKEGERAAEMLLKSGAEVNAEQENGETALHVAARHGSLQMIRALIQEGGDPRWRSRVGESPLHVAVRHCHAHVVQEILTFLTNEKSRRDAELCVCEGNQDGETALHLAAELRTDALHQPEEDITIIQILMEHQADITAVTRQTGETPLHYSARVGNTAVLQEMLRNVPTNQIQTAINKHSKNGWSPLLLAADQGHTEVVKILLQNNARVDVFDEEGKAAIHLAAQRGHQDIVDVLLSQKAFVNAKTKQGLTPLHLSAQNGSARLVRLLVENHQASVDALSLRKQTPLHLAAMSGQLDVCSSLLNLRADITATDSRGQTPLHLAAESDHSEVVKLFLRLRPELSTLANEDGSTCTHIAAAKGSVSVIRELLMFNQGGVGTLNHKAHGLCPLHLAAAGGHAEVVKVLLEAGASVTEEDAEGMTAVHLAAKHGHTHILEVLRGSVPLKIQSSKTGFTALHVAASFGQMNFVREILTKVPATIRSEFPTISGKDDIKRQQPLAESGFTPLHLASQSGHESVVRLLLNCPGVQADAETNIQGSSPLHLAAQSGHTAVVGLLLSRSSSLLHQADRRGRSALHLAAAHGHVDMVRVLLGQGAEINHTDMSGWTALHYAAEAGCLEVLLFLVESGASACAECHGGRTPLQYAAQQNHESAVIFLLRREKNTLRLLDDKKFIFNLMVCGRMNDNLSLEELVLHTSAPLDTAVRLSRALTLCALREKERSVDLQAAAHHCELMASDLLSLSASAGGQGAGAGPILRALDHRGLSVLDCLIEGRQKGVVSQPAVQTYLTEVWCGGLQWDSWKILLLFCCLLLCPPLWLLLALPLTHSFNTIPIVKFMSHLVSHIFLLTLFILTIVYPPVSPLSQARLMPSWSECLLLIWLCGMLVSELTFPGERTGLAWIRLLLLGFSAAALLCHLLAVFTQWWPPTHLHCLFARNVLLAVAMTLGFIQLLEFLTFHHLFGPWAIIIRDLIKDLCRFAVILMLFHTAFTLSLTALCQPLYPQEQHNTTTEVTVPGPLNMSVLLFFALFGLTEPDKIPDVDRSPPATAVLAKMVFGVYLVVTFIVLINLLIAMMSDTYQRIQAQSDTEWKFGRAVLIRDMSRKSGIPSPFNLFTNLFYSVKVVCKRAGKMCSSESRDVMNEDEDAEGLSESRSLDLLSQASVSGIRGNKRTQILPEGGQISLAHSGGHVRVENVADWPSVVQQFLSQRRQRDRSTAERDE
Sphingosine 1-phosphate receptor 2, sequence (O95136 whole entry): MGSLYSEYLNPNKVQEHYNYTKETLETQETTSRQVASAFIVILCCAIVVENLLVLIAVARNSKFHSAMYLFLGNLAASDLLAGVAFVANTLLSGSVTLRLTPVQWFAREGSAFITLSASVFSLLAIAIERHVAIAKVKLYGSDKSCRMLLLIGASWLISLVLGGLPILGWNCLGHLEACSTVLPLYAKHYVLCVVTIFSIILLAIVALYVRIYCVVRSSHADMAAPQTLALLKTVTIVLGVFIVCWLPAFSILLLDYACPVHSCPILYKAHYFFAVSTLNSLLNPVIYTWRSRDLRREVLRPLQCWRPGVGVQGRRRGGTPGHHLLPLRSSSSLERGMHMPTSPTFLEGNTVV

Cc1cc(C(=O)CN2C(=O)C(=O)N(C)C2=O)c(C)n1Cc1ccccc1
EC50 [1]: 22.3 µM (not active)

O=C(Nc1nc2ccccc2s1)c1cc(-c2ccccc2)nn1-c1ccccc1
IC50 [2]: 47.4 µM (active) | AC50 (INS1): 3.62 µM (active)

COc1ccc([C@H]2CC(=O)C=C(c3ccc4c5c(cccc35)CC4)C2)cc1
CC50 [3]: > 40 µM (active) | IC50 [4]: > 100 µM (active)

O=C(Nc1ccccc1N1CCOCC1)c1cc(-c2ccco2)nc2ccccc12
IC50 (Bcl-2-like protein 10): 95.1 µM (inactive) | IC50 [5]: 39.3 µM (active) | IC50 (SUMO E1/E2): 48.2 µM (active) | IC50 [6]: 9.81 µM (active) | IC50 (Estrogen receptor beta [7]): 1.04 µM (not active) | IC50 (Estrogen receptor beta [8]): 3.78 µM (active)

CC1CCN(c2ccc(-c3cccs3)nn2)CC1
AC50 [9]: 29.4 µM (active) | AC50 [10]: 0.851 µM (active) | EC50 [11]: 2.78 µM (active) | AC50 [12]: 30.9 µM (active) | EC50 [13]: 8.6 µM (active) | AC50 [14]: 1.43 µM (active) | EC50 [15]: 10.4 µM (active) | IC50 [16]: 37.5 µM (not active)

CCOC(=O)c1cnc2c(-c3ccc(F)cc3)cnn2c1C(F)(F)F
IC50 [2]: 23.1 µM (active)

Cn1c(=O)n(Cc2ccccc2)c(=O)c2c1nc1n2CCCN1C1CCCCC1
IC50 [4]: > 100 µM (active)

N#Cc1cc(O)c(-n2nnc3ccccc32)cc1C#N
EC50 [17]: > 79.4 µM (not active) | EC50 [18]: > 79.4 µM (not active) | EC50 [19]: > 79.4 µM (not active)

COc1cccc(CN(CC2CCCO2)S(=O)(=O)c2ccc(S(=O)(=O)N(C)C)cc2)c1 (stereo unspecified)
EC50 (Ion channel NompC): > 29.9 µM (not active) | EC50 (Mucolipin-3): > 29.9 µM (not active)

CN(c1ccccc1)S(=O)(=O)c1cccc(Cl)c1Cl
EC50 (Ion channel NompC): > 29.9 µM (not active) | EC50 (Mucolipin-3): 4.52 µM (active)

Cc1cc(C(=O)COC(=O)Cn2cnc3ccccc3c2=O)c(C)n1Cc1ccccc1
EC50 [1]: > 30 µM (not active)

Cc1nn(Cc2c(F)cccc2Cl)c(C)c1[N+](=O)[O-]
EC50 [17]: > 79.4 µM (not active) | EC50 [18]: > 79.4 µM (not active) | EC50 [19]: > 79.4 µM (not active)

COc1cccc(/C=N/Nc2nccnc2Cl)c1O
EC50 [20]: 1.52 µM (active) | AC50 [9]: 4.2 µM (active) | AC50 [10]: 3.7 µM (active) | AC50 (HEK293): 2.73 µM (active) | AC50 [12]: 6.83 µM (active) | EC50 [21]: > 150 µM (inactive) | IC50 (Nonstructural protein 1): 7.59 µM (active) | AC50 [22]: 2.48 µM (active) | AC50 [14]: 3.39 µM (active) | IC50 [23]: 3.97 µM (active) | EC50 (cells [24]): > 350 µM (not active) | EC50 (cells [25]): 6.97 µM (active) | IC50 [16]: 9.16 µM (active) | IC50 [26]: 3.57 µM (active)
